Where two headings read alike, the source gives them in different places.
Tests used:
[1] = Absorption of DN-1417 (14C-DN-1417) administered by various routes to rats, plasma AUC; assay type: in vivo; details: for bioavailability as compared with subcutaneous application: no absorption enhancer, 2 mg/kg
Description: Male rats of SD strain weighing ca. 300 g, which had been fasted for 24 hours, were dosed with an amount of ^14 C-DN-1417 corresponding to 2 mg/kg of DN-1417 by the rectal, nasal, oral cavity and oral routes. The dosage form for nasal, oral cavity or oral administration was either an aqueous solution or an oil solution, and for nasal administration, 0.02 ml of the solution was given with a micropipette; for oral cavity application, a wad of cotton soaked with 0.02 ml of the solution was sublingually administered; and for oral administration, 1 ml of the solution was given by gavage. For rectal administration, 0.1 ml of an aqueous solution was given using a pipette. In the case of a polyethylene glycol suppository and Witepsol W-35 (Dynamit Nobel Chemicals, West Germany) suppository, 50 mg of either suppository was deposited 1.5 cm from the anus.
After administration, 0.2 ml of blood was taken from the cordal vein at timed intervals and the plasma radioactivity was measured with a scintillation counter. Separation of the unmetabolized compound from metabolites was performed by thin-layer electrophoresis. For the evaluation of absorption rates, the area under a curve of the plasma concentration of DN-1417 over a period of 6 hours after administration [AUC (0-6 hr.)] was compared with the corresponding value obtained by subcutaneous administration to calculate the bioavailability of the drug.

[2] = parameters: species or system rats; details: rat, in vivo; for AUC (0-2 hr.): po, 2 mg/kg
Description: Using male SD-strain rats weighing ca. 300 g which had been fasted for 24 hours in groups of 3 animals, an amount of ^3 H-TRH equivalent to 2 mg/kg of TRH was administered by the rectal, nasal and oral routes.
The method and volume of administration, the method of collecting blood samples and the method of determination were all the same as described in Experimental Example 1. Evaluation of absorption ratio was made using as a parameter the plasma level of TRH.

SMILES | effect on absorption ([1]; addition of a hydroxycarboxylic acid) | effect on absorption ([1]; addition of amino acids, lecithin, etc.) | bioavailability as compared with subcutaneous application ([1]; nasal) | bioavailability as compared with subcutaneous application ([1]; rectal) | absorption from the rectal and nasal mucosa [2] | AUC (0-2 hr.) ([2]; pH 2.1) | AUC (0-2 hr.) ([2]; pH 3.2)
NC(=O)[C@@H]1CCCN1C(=O)[C@H](Cc1c[nH]cn1)NC(=O)C1CCC(=O)O1 (stereo partly drawn) [DN-1417, γ-butyrolactone-γ-carbonyl-L-histidyl-L-prolinamide] | remarkable improvement in absorption | does not result in any significant improvement of absorption | 21% | 25% |  |  | 
NC(=O)[C@@H]1CCCN1C(=O)[C@H](Cc1cnc[nH]1)NC(=O)[C@@H]1CCC(=O)N1 [TRH, L-pyroglutamyl-L-histidyl-L-prolinamide] |  |  |  |  | enhanced | 1100 ng·h/mL | 700 ng·h/mL

— US4504470A, “Pharmaceutical preparations containing TRH or its analogue” (Takeda Chemical Industries, Ltd., priority 1981, dated 1985)
